Measurements from article PMC3457657 (Medicinal chemistry research : an international journal for …, 2011).
Like-named read-outs stand apart in the source and are kept apart here.

Columns and labels:
[1] = tested on: Cryptococcus neoformans ATCC 90113; assay: In vitro antimicrobial; format: cell-based; conditions: ATCC90113, read-out: IC50 Antifungal C. neoformans
[2] = tested on: methicillin-resistant S. aureus ATCC 33591 (MRS); assay: In vitro antimicrobial; format: cell-based; conditions: Staphylococcus aureus, ATCC33591, read-out: IC50 Antibacterial MRS
[3] = tested on: mouse skin tumor promotion; conditions: two-stage carcinogenesis; ref Mikaye et al., 2010; cited from earlier work
[4] = ref Mikaye et al., 2009; Ishikawa et al., 1984; Li et al., 2006; cited from earlier work
[5] = tested on: sex cells of the sea urchin Strongylocentrotus intermedius; conditions: at a concentration of 0.5 mg/l; ref Smetanina et al., 2007; cited from earlier work
S. aureus = conditions: ref Desbois et al., 2008; cited from earlier work
[6] = ref Fujimoto et al. 1999; cited from earlier work
[7] = tested on: Staphylococcus aureus ATCC 29213; assay: In vitro antimicrobial; format: cell-based; conditions: ATCC29213, read-out: IC50 Antibacterial S. aureus
[8] = ref Vesonder et al., 1988; cited from earlier work
HeLa cells = conditions: cited from earlier work
[9] = ref Vesonder et al., 1988; cited from earlier work; remark: listed apart in the source
[10] = ref Ali et al., 1989; cited from earlier work
[11] = ref Mori et al., 1984; cited from earlier work
[12] = tested on: visceral and cutaneous leishmaniasis; conditions: oral drug, ref Berman, 2008; cited from earlier work
[13] = tested on: mitochondrial respiration; conditions: ref Kawai et al., 1986; cited from earlier work
[14] = tested on: P. falciparum chloroquine-resistant strain (W2, Indo China); assay: In vitro antimalarial activity, plasmodial LDH activity; format: cell-based, Plasmodium falciparum; conditions: chloroquine-resistant strain W2, 72 h
[15] = tested on: P. falciparum chloroquine-sensitive strain (D6, Sierra Leone); assay: as above; format: cell-based, Plasmodium falciparum; conditions: chloroquine-sensitive strain D6, 72 h

Structure (SMILES) | IC50 [1] | IC50 [2] | IC50 [7] | inhibition of mouse skin tumor promotion [3] | antioxidant activity and radical scavenging activity against DPPH [4] | also measured
CCCCC/C=C/c1c(O)cc(CC=C(C)C)c(O)c1C=O [Compound 3, tetrahydroauroglaucin] | > 20 µg/mL | > 20 µg/mL | – | inhibited | antioxidant activity and radical scavenging activity | cytotoxic activity against sex cells of the sea urchin [5]: cytotoxic activity
CCCCCC/C=C\CCCCCCCC(=O)O [(9Z)-hexadecenoic acid] | – | – | – | – | – | potency against S. aureus relative to (6Z, 9Z, 12Z)-hexadecatrienoic acid (HTA) (S. aureus): about twice as much
C=CC(C)(C)c1[nH]c2c(CC=C(C)C)cc(CC=C(C)C)cc2c1C[C@@H]1NC(=O)[C@H](C)NC1=O [Compound 7, echinulin] | > 20 µg/mL | > 20 µg/mL | > 20 µg/mL | – | – | concentration in food that swine refused to eat [8]: 8 ng/mL; cytotoxicity to HeLa cells (HeLa cells; at the concentration of 100 mg/l, ref Umeda et al., 1974, Wang et al., 2006): cytotoxicity; concentration in the water causing drinking refusal in mice [9]: 90000 ng/mL; organ damage (alveolar, liver) [10]: severe damage of alveolar organization and thickening of alveolar walls and liver damage; genotoxicity [11]: not genotoxic
CCCCCCCCCCCCCCCCOP(=O)([O-])OCC[N+](C)(C)C [Miltefosine] | – | – | – | – | – | cure rates [12]: about 98%
CCCCCCCc1c(O)cc(CC=C(C)C)c(O)c1C=O [Compound 2, flavoglaucin] | > 20 µg/mL | – | – | inhibited | antioxidant activity and radical scavenging activity | cytotoxicity to HeLa cells (HeLa cells): cytotoxic; mitochondrial respiration [13]: inhibited mitochondrial respiration; mitochondrial swelling [13]: induced mitochondrial swelling
CCC/C=C/C=C/c1c(O)cc(CC=C(C)C)c(O)c1C=O [Compound 4, dihydroauroglaucin] | > 20 µg/mL | > 20 µg/mL | > 20 µg/mL | inhibited | antioxidant activity and radical scavenging activity | IC50 Antimalarial P. falciparum W2 [14]: inactive; IC50 Antimalarial P. falciparum D6 [15]: inactive
CCCCC/C=C/c1c(O)cc(CC=C(C)C)c(O)c1CO [Compound 1, (E)-2-(hept-1-enyl)-3-(hydroxymethyl)-5-(3-methylbut-2-enyl)benzene-1,4-diol] | > 20 µg/mL | – | > 20 µg/mL | – | – | –
CCC/C=C/c1cc2c(C=O)c(O)c(CC=C(C)C)cc2o1 [Compound 6, 2-(2′,3-epoxy-1′,3′-heptadienyl)-6-hydroxy-5-(3-methyl-2-butenyl)benzaldehyde] | – | – | – | – | antioxidant activity and radical scavenging activity | IC50 Antimalarial P. falciparum W2 [14]: inactive; IC50 Antimalarial P. falciparum D6 [15]: inactive

Further lines, with some results ahead:

IC50 [1] | IC50 [2] | IC50 [7] | Structure (SMILES) | inhibition of mouse skin tumor promotion [3] | antioxidant activity and radical scavenging activity against DPPH [4] | also measured
– | > 20 µg/mL | > 20 µg/mL | Cc1c(O)cc(O)c2c1COC2=O [Compound 8, 5,7-dihydroxy-4-methylphthalide] | – | – | immunosuppressive activity [6]: immunosuppressive activity
> 20 µg/mL | > 20 µg/mL | > 20 µg/mL | C/C=C/C=C/C=C/c1c(O)cc(CC=C(C)C)c(O)c1C=O [Compound 5, auroglaucin] | inhibited | antioxidant activity and radical scavenging activity | –
